Results published in publication PMC2967600 (Peptides, 2010).
Ends that are not written are not given here.

Columns and labels:
[1] = system: melanocortin receptors; details: cited from earlier work
[2] = target: hMC5R (Homo sapiens, UniProt P33032); details: Bednarek et al.; cited from earlier work
[3] = system: rat MC5R; details: CHO cells; cited from earlier work
[4] = target: mMC3R (Mus musculus, UniProt P33033); test: cAMP based functional bioassay; format: cell-based
[5] = target: mMC5R (Mus musculus, UniProt P41149); test: cAMP based functional bioassay; format: cell-based; details: mMC5R EC50, agonist; mean ± SEM; >100000 = no activity at up to 100μM
mMC5R, sequence (P41149 whole entry): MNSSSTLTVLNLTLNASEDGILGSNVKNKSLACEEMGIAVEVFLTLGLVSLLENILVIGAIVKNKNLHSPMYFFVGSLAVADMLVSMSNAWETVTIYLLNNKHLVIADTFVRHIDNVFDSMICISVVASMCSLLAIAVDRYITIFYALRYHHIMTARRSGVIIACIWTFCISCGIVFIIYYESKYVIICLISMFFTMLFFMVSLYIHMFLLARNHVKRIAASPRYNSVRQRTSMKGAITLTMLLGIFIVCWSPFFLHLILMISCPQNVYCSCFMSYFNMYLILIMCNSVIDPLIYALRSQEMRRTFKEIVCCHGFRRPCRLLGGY

mMC3R, sequence (P33033 whole entry): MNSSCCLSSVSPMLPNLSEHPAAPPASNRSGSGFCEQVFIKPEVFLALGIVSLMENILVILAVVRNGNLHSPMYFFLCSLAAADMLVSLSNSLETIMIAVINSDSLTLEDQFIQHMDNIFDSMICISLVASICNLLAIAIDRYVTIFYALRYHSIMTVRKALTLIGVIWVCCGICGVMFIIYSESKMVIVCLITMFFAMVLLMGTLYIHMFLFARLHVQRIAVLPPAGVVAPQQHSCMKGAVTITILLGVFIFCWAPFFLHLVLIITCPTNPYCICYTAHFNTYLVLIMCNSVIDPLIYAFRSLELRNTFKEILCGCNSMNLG
hMC5R, sequence (P33032 whole entry): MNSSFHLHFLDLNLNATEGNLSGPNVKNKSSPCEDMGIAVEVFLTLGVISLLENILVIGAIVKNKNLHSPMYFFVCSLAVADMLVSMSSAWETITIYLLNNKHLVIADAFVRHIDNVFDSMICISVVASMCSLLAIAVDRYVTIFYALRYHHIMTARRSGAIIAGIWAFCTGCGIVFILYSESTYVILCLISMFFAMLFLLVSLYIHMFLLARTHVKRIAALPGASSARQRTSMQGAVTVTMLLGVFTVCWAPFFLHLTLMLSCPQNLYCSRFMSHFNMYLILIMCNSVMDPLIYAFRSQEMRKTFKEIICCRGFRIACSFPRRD

Substance: Ac-His-Phe-Arg-Trp-NH2
- stimulation of melanocortin receptors [1]: able to fully stimulate

Substance: HS024
- functional activity at the hMC5R [2]: full hMC5R agonist
- functional activity at the rat MC5R [3]: full agonist

Substance: YVMGHFRWDR [Peptide 6]
- selectivity for the mMC3R versus the mMC4R ([4]; from agonist EC50 values): 18 fold

Substance: MGHFRWDRF [Peptide 27]
- EC50 [5]: 0.365 µM
- EC50 ([4]; mMC3R EC50, agonist, mean ± SEM, >100000 = no activity at up to 100μM): 0.1 µM
